Read-outs that look alike come from different tables or passages of the source. Square brackets hold non-standard residues; d marks the D form. Peptide text beside a SMILES is read from it. * marks the point of attachment. X1 = O=C(CSCC(=O)*)NCCN1C(=O)c2ccccc2C1=O; Aib = CC(C)(N)C(=O)O
Tests used:
Type in all cases: cell-based
GLP-1R [1] = target: T1, GLP-1R (Homo sapiens, UniProt P43220); assay: PathHunter β-arrestin assay
Summary of the method: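 β-Arrestin recruitment measured by PathHunter enzyme-fragment luminescence, read after 3 h dark incubation at room temperature with detection solution. Beforehand, agonist in a 22-point 2-fold series was applied in duplicate for 90 min at 37 °C to 5,000 cells/well in BSA-containing (0.2%) medium.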

GLP-1R [2] = target: T1, GLP-1R; assay: HitHunter cAMP assay (GLP-1R); details: cAMP; for Emax: read-out: (Emax) GLP-1R
Summary of the method: (§1)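 cAMP accumulation read by luminescent HitHunter immunocompetition after 30 min room-temperature agonist stimulation. Agonists tested as 22-point twofold dilutions, in duplicate, on 10,000 cells/well in HBSS containing 625 μM IBMX, 10 mM HEPES and 0.2% BSA.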

GIP-R = target: T2, GIP-R (Homo sapiens, UniProt P48546); assay: HitHunter cAMP assay (GIP-R); details: cAMP; for Emax: read-out: (Emax) GIP-R
T2 sequence (P48546 22-466): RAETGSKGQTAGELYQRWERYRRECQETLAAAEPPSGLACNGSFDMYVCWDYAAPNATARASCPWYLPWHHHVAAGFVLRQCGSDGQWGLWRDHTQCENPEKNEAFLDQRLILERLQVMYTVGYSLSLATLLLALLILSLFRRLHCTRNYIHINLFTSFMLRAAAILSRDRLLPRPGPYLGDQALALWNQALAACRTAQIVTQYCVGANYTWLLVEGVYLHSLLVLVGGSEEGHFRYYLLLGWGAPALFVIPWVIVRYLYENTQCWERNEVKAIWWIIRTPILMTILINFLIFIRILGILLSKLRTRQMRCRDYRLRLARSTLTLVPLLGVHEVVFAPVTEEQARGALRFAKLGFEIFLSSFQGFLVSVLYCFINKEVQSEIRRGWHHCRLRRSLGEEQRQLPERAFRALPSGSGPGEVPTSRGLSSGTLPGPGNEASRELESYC
Summary of the method: as §1

[3] = PathHunter β-arrestin assay, read-out: β-arrestin activity EC50
[4] = Table 3A, read-out: EC50 GLP-1R/nM
[5] = Table 3A, read-out: EC50 GIP-R/nM

T1 sequence (P43220 24-463): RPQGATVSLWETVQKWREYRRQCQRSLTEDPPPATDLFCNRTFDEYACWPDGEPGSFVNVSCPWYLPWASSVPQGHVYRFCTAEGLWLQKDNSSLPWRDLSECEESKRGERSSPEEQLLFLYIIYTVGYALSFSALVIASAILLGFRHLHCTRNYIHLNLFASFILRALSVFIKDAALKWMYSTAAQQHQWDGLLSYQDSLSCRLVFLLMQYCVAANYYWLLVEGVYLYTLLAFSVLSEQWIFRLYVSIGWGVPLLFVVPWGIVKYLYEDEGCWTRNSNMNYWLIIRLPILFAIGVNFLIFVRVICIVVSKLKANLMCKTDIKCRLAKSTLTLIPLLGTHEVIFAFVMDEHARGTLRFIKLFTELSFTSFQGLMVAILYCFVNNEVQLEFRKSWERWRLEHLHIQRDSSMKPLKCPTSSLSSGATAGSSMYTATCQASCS

Row | Structure (SMILES) | EC50 (GLP-1R [1]; [3]) [nM] | Emax (GLP-1R [2]; Table 3) [%] | EC50 (GLP-1R [2]; Table 3, read-out: EC50 GLP-1R/nM) [nM] | Emax (GLP-1R [2]; Table 3A) [%] | EC50 (GLP-1R [2]; [4]) [nM] | Emax (GIP-R; Table 3) [%] | EC50 (GIP-R; Table 3, read-out: EC50 GIP-R/nM) [nM] | Emax (GIP-R; Table 3A) [%] | EC50 (GIP-R; [5]) [nM] | EC50 (GLP-1R [1]) [nM] | EC50 (GLP-1R [2]; EC50 GLP-1R/nM, Table 3) [nM] | EC50 (GLP-1R [2]; EC50 GLP-1R/nM, Table 3A) [nM] | EC50 (GIP-R; EC50 GIP-R/nM, Table 3) [nM] | EC50 (GIP-R; EC50 GIP-R/nM, Table 3A) [nM]
1 | CC[C@H](C)[C@H](NC(=O)[C@H](CO)NC(=O)[C@H](Cc1ccc(O)cc1)NC(=O)[C@H](CC(=O)O)NC(=O)[C@H](CO)NC(=O)[C@@H](NC(=O)[C@H](Cc1ccccc1)NC(=O)[C@@H](NC(=O)CNC(=O)[C@H](CCC(=O)O)NC(=O)C(C)(C)C(=O)NCCN1C(=O)CSC1=O)[C@@H](C)O)[C@@H](C)O)C(=O)N[C@@H](Cc1ccc(O)cc1)C(=O)N[C@@H](CC(C)C)C(=O)N[C@@H](CC(=O)O)C(=O)N[C@@H](CCCCN)C(=O)N[C@@H](CCC(N)=O)C(=O)N[C@@H](C)C(=O)N[C@@H](C)C(=O)NC(C)(C)C(=O)N[C@@H](CCC(=O)O)C(=O)N[C@@H](Cc1ccccc1)C(=O)N[C@H](C(=O)N[C@@H](CC(N)=O)C(=O)N[C@@H](Cc1c[nH]c2ccccc12)C(=O)N[C@@H](CC(C)C)C(=O)N[C@@H](CC(C)C)C(=O)N[C@@H](C)C(=O)NCC(=O)NCC(=O)N1CCC[C@H]1C(=O)N[C@@H](CO)C(=O)N[C@@H](CO)C(=O)NCC(=O)N[C@@H](C)C(=O)N1CCC[C@H]1C(=O)N1CCC[C@H]1C(=O)N1CCC[C@H]1C(=O)N[C@@H](CO)C(=O)N[C@@H](CCCCN)C(N)=O)C(C)C [Compound 153] | 10 to 1000 | 107 | < 0.1 | 107 | < 0.1 | 75 to 85 | 10 to 100 | 75 to 85 | 10 to 100 | – | – | – | – | –
2 | CC[C@H](C)[C@H](NC(=O)[C@H](CO)NC(=O)[C@H](Cc1ccc(O)cc1)NC(=O)[C@H](CC(=O)O)NC(=O)[C@H](CO)NC(=O)[C@@H](NC(=O)[C@H](Cc1ccccc1)NC(=O)[C@@H](NC(=O)CNC(=O)[C@H](CCC(=O)O)NC(=O)CSCC(=O)NCCN1C(=O)[C@H]2CCCC[C@H]2C1=O)[C@@H](C)O)[C@@H](C)O)C(=O)N[C@@H](Cc1ccc(O)cc1)C(=O)N[C@@H](CC(C)C)C(=O)N[C@@H](CC(=O)O)C(=O)N[C@@H](CCCCN)C(=O)N[C@@H](CCC(N)=O)C(=O)N[C@@H](C)C(=O)N[C@@H](C)C(=O)NC(C)(C)C(=O)N[C@@H](CCC(=O)O)C(=O)N[C@@H](Cc1ccccc1)C(=O)N[C@H](C(=O)N[C@@H](CC(N)=O)C(=O)N[C@@H](Cc1c[nH]c2ccccc12)C(=O)N[C@@H](CC(C)C)C(=O)N[C@@H](CC(C)C)C(=O)N[C@@H](C)C(=O)NCC(=O)NCC(=O)N1CCC[C@H]1C(=O)N[C@@H](CO)C(=O)N[C@@H](CO)C(=O)NCC(=O)N[C@@H](C)C(=O)N1CCC[C@H]1C(=O)N1CCC[C@H]1C(=O)N1CCC[C@H]1C(=O)N[C@@H](CO)C(=O)N[C@@H](CCCCN)C(N)=O)C(C)C [Compound 159] | – | 87 to 91 | – | 87 to 91 | – | 89 to 92 | – | 89 to 92 | – | > 1000 | 10 to 100 | 10 to 100 | 1 to 10 | 1 to 10
3 | CCCCCCCCCCCCCCCC(=O)N[C@@H](CCC(=O)NCCCC[C@H](NC(=O)[C@H](CO)NC(=O)[C@@H]1CCCN1C(=O)[C@@H]1CCCN1C(=O)[C@@H]1CCCN1C(=O)[C@H](C)NC(=O)CNC(=O)[C@H](CO)NC(=O)[C@H](CO)NC(=O)[C@@H]1CCCN1C(=O)CNC(=O)CNC(=O)[C@H](C)NC(=O)[C@H](CC(C)C)NC(=O)[C@H](CC(C)C)NC(=O)[C@H](Cc1c[nH]c2ccccc12)NC(=O)[C@H](CC(N)=O)NC(=O)[C@@H](NC(=O)[C@H](Cc1ccccc1)NC(=O)[C@H](CCC(=O)O)NC(=O)C(C)(C)NC(=O)[C@H](C)NC(=O)[C@H](C)NC(=O)[C@H](CCC(N)=O)NC(=O)[C@H](CCCCN)NC(=O)[C@H](CC(=O)O)NC(=O)[C@H](CC(C)C)NC(=O)[C@H](Cc1ccc(O)cc1)NC(=O)[C@@H](NC(=O)[C@H](CO)NC(=O)[C@H](Cc1ccc(O)cc1)NC(=O)[C@H](CC(=O)O)NC(=O)[C@H](CO)NC(=O)[C@@H](NC(=O)[C@H](Cc1ccccc1)NC(=O)[C@@H](NC(=O)CNC(=O)[C@H](CCC(=O)O)NC(=O)CSCC(=O)NCCN1C(=O)CC[C@@H](C)C1=O)[C@@H](C)O)[C@@H](C)O)[C@@H](C)CC)C(C)C)C(N)=O)C(=O)O [Compound 85] | – | 103 | – | 103 | – | 83 | – | 83 | – | > 1000 | 1 to 10 | 1 to 10 | 0.1 to 1 | 0.1 to 1
4 | CCCCCCCCCCCCCCCC(=O)N[C@@H](CCC(=O)NCCCC[C@H](NC(=O)[C@H](CO)NC(=O)[C@@H]1CCCN1C(=O)[C@@H]1CCCN1C(=O)[C@@H]1CCCN1C(=O)[C@H](C)NC(=O)CNC(=O)[C@H](CO)NC(=O)[C@H](CO)NC(=O)[C@@H]1CCCN1C(=O)CNC(=O)CNC(=O)[C@H](C)NC(=O)[C@H](CC(C)C)NC(=O)[C@H](CC(C)C)NC(=O)[C@H](Cc1c[nH]c2ccccc12)NC(=O)[C@H](CC(N)=O)NC(=O)[C@@H](NC(=O)[C@H](Cc1ccccc1)NC(=O)[C@H](CCC(=O)O)NC(=O)C(C)(C)NC(=O)[C@H](C)NC(=O)[C@H](C)NC(=O)[C@H](CCC(N)=O)NC(=O)[C@H](CCCCN)NC(=O)[C@H](CC(=O)O)NC(=O)[C@H](CC(C)C)NC(=O)[C@H](Cc1ccc(O)cc1)NC(=O)[C@@H](NC(=O)[C@H](CO)NC(=O)[C@H](Cc1ccc(O)cc1)NC(=O)[C@H](CC(=O)O)NC(=O)[C@H](CO)NC(=O)[C@@H](NC(=O)[C@H](Cc1ccccc1)NC(=O)[C@@H](NC(=O)CNC(=O)[C@H](CCC(=O)O)NC(=O)CCCC(=O)NCCN1CCOCC1=O)[C@@H](C)O)[C@@H](C)O)[C@@H](C)CC)C(C)C)C(N)=O)C(=O)O [Compound 243] | > 1000 | – | – | 103 | < 0.1 | – | – | 20 | 10 to 100 | – | – | – | – | –
5 | CC[C@H](C)[C@H](NC(=O)[C@H](CO)NC(=O)[C@H](Cc1ccc(O)cc1)NC(=O)[C@H](CC(=O)O)NC(=O)[C@H](CO)NC(=O)[C@@H](NC(=O)[C@H](Cc1ccccc1)NC(=O)[C@@H](NC(=O)CNC(=O)[C@H](CCC(=O)O)NC(=O)CCCC(=O)NCCN1C(=O)c2ccccc2C1=O)[C@@H](C)O)[C@@H](C)O)C(=O)N[C@@H](Cc1ccc(O)cc1)C(=O)N[C@@H](CC(C)C)C(=O)N[C@@H](CC(=O)O)C(=O)N[C@@H](CCCCN)C(=O)N[C@@H](CCC(N)=O)C(=O)N[C@@H](C)C(=O)N[C@@H](C)C(=O)NC(C)(C)C(=O)N[C@@H](CCC(=O)O)C(=O)N[C@@H](Cc1ccccc1)C(=O)N[C@H](C(=O)N[C@@H](CC(N)=O)C(=O)N[C@@H](Cc1c[nH]c2ccccc12)C(=O)N[C@@H](CC(C)C)C(=O)N[C@@H](CC(C)C)C(=O)N[C@@H](C)C(=O)NCC(=O)NCC(=O)N1CCC[C@H]1C(=O)N[C@@H](CO)C(=O)N[C@@H](CO)C(=O)NCC(=O)N[C@@H](C)C(=O)N1CCC[C@H]1C(=O)N1CCC[C@H]1C(=O)N1CCC[C@H]1C(=O)N[C@@H](CO)C(=O)N[C@@H](CCCCN)C(N)=O)C(C)C [Compound 188] | – | 101 | – | 101 | – | 107 | – | 107 | – | > 1000 | 10 to 100 | 10 to 100 | 1 to 10 | 1 to 10
6 | CC[C@H](C)[C@H](NC(=O)[C@H](CO)NC(=O)[C@H](Cc1ccc(O)cc1)NC(=O)[C@H](CC(=O)O)NC(=O)[C@H](CO)NC(=O)[C@@H](NC(=O)[C@H](Cc1ccccc1)NC(=O)[C@@H](NC(=O)CNC(=O)[C@H](CCC(=O)O)NC(=O)CSCC(=O)NCCN1C(=O)c2ccccc2C1=O)[C@@H](C)O)[C@@H](C)O)C(=O)N[C@@H](Cc1ccc(O)cc1)C(=O)N[C@@H](CC(C)C)C(=O)N[C@@H](CC(=O)O)C(=O)N[C@@H](CCCCN)C(=O)N[C@@H](CCC(N)=O)C(=O)N[C@@H](C)C(=O)N[C@H](C(=O)NC(C)(C)C(=O)N[C@@H](CCC(=O)O)C(=O)N[C@@H](Cc1ccccc1)C(=O)N[C@H](C(=O)N[C@@H](CC(N)=O)C(=O)N[C@@H](Cc1c[nH]c2ccccc12)C(=O)N[C@@H](CC(C)C)C(=O)N[C@@H](CC(C)C)C(=O)N[C@@H](C)C(=O)NCC(=O)NCC(=O)N1CCC[C@H]1C(=O)N[C@@H](CO)C(=O)N[C@@H](CO)C(=O)NCC(=O)N[C@@H](C)C(=O)N1CCC[C@H]1C(=O)N1CCC[C@H]1C(=O)N1CCC[C@H]1C(=O)N[C@@H](CO)C(=O)N[C@@H](CCCCN)C(N)=O)[C@@H](C)CC)C(C)C [Compound 133] (X1-EGTFTSDYSIYLDKQAV[Aib]EFINWLLAGGPSSGAPPPSK-NH2) | – | 98 | – | 98 | – | 104 | – | 104 | – | > 1000 | 1 to 10 | 1 to 10 | 0.1 to 1 | 0.1 to 1

Source: patent US20260176320A1, “MODULATORS OF G-PROTEIN COUPLED RECEPTORS” (priority 2018, published 2026)
